Source: patent publication US9359338B2, “Cyclopropanecarboxamido-substitute aromatic compounds as anti-tumor agents” (Crown Bioscience Inc. (Taiwan), priority 2012, dated 2016)
Read-outs that look alike come from different tables or passages of the source.

Key:
KDR kinase (790-1356 AA) = KDR kinase (790-1356 AA) (Homo sapiens (Human), UniProt P35968); experiment: Inhibitory activity at KDR kinase (Lance Ultra Ulight-TK assay); assay type: biochemical
How it was run: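 TR-FRET (Eu-anti-phosphotyrosine PT66) with 20 nM KDR preincubated with compound 20 min at 30 °C in HEPES pH 7.5 buffer with Mg2+/Mn2+, 0.5% DMSO.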

B-Raf kinase = B-Raf kinase (Homo sapiens (Human), UniProt P15056); experiment: Inhibitory activity at B-Raf kinase (ADP-GLO assay); assay type: biochemical
B-Raf kinase, sequence (P15056 416-766): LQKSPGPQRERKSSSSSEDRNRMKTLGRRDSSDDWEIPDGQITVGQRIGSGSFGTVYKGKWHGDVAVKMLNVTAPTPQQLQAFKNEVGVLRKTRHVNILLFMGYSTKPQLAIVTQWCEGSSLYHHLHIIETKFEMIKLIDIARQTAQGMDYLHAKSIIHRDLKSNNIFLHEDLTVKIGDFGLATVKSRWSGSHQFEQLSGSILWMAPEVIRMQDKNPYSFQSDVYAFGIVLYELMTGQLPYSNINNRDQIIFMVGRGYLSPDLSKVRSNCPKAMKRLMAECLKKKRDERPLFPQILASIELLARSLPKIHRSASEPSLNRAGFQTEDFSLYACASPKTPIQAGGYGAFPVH
How it was run: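 B-Raf (5 nM) was preincubated with compound (0.25% DMSO final) for 20 min at 30 °C in 50 mM Hepes pH 7.5, 10 mM Mg²⁺, 1 mM EGTA, 2 mM DTT. Reaction with 6 μM ATP and 30 nM GST-MEK1 ran 2 hrs at 30 °C. ADP was detected by ADP-GLO luminescence, giving IC50 values.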

pERK in MDA-MB-231 cells = experiment: Inhibitory activity at pERK (In Cell Western, MDA-MB-231 cells); assay type: cell-based; conditions: Homo sapiens
How it was run: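 MDA-MB-231 cells were treated 2 h at 37 °C with 8 compound concentrations in 3-fold dilutions from 30 μM top (0.3% DMSO, DMEM with 0.1% BSA). Cells were then fixed, methanol-permeabilized and immunostained for pERK with PI counterstain. Fluorescence was read on Acumen and IC50 calculated.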

PLC-PRF-5 cells = experiment: Inhibition of proliferation of PLC-PRF-5 cells (ATPlite); assay type: cell-based; conditions: Homo sapiens
How it was run: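 PLC-PRF-5 cells in DMEM/10% FBS, seeded 2 h before compound; 8-point 3-fold dilutions from 30 μM final top, 0.3% DMSO. After 96 h at 37 °C, 5% CO2, ATP content read by ATPlite luminescence; IC50 calculated.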

[1] = Half-life in pre-clinical animal studies; assay type: in vivo; conditions: compared with compounds of the invention
tumor = experiment: In vivo anti-tumor activity in pre-clinical animal studies; conditions: compared with compounds of the invention
[2] = MDA-MB-231, MDA-MB-231 cells, read-out: MDA-MB-231 pERK IC50
[3] = PLC-PRF-5, PLC-PRF-5 cells, read-out: PLC-PRF-5 cell proliferation IC50

KDR kinase (790-1356 AA), sequence (P35968 790-1356): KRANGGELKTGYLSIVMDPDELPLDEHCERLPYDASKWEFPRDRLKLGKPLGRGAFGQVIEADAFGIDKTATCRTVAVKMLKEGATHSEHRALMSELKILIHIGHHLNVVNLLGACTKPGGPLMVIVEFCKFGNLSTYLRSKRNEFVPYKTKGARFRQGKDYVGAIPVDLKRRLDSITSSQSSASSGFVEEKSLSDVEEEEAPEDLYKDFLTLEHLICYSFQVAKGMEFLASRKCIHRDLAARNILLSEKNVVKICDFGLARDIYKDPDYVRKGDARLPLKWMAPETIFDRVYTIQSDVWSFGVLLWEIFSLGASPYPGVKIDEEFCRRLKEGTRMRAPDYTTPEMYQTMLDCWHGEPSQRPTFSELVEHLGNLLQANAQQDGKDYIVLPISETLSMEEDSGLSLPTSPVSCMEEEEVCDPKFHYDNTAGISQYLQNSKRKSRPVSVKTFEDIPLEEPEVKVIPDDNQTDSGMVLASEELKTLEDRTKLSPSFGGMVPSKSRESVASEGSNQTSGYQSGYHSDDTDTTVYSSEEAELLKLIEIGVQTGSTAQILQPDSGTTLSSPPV

| SMILES | IC50 (KDR kinase (790-1356 AA)) [nM] | IC50 (B-Raf kinase) [nM] | IC50 (pERK in MDA-MB-231 cells; [2]) [nM] | IC50 (PLC-PRF-5 cells; [3]) [nM] | IC50 (pERK in MDA-MB-231 cells; MDA-MB-231, read-out: MDA-MB-231 pERK IC50) [nM] | IC50 (PLC-PRF-5 cells; PLC-PRF-5, read-out: PLC-PRF-5 cell proliferation IC50) [nM] | half-life [1] | in vivo anti-tumor activities (tumor) |
| --- | --- | --- | --- | --- | --- | --- | --- | --- |
| Cc1cc(Oc2ccnc(NC(=O)C3CC3)c2)ccc1NC(=O)Nc1ccc(F)c(OC(F)(F)F)c1 [Exe. 196] | 11.8 | 13 | 14.6 | 2500 | – | – | – | – |
| Cc1cc(Oc2ccnc(NC(=O)C3CC3)c2)ccc1NC(=O)Nc1ccc(Cl)c(C(C)(F)F)c1 [Exe. 199] | 14 | 11.7 | 11 | 3700 | – | – | – | – |
| O=C(Nc1ccc(F)c(C(F)(F)F)c1)Nc1ccc(Oc2ccnc(NC(=O)C3CC3)c2)cc1F [Exe. 205] | 25.1 | 13 | 9.2 | 1090 | – | – | – | – |
| O=C(Nc1cc(F)cc(C(F)(F)F)c1)Nc1ccc(Oc2ccnc(NC(=O)C3CC3)c2)cc1F [Exe. 208] | 14.9 | 37 | 9.8 | 640 | – | – | – | – |
| O=C(Nc1ccc(Oc2ccnc(NC(=O)C3CC3)c2)cc1F)Nc1cc(C(F)(F)F)ccc1F [Exe. 209] | 8.4 | 9 | 5.9 | 51 | – | – | – | – |
| O=C(Nc1ccc(Oc2ccnc(NC(=O)C3CC3)c2)cc1F)Nc1cc(C(F)(F)F)ccc1Cl [Exe. 210] | 11.8 | 19 | 17 | 636 | – | – | – | – |
| O=C(Nc1cccc(C(F)(F)F)c1)Nc1ccc(Oc2ccnc(NC(=O)C3CC3)c2)cc1F [Exe. 211] | 7.8 | 6.4 | 2.3 | 190 | – | – | – | – |
| O=C(Nc1cc(N2CC(F)(F)C2)cc(C(F)(F)F)c1)Nc1ccc(Oc2ccnc(NC(=O)C3CC3)c2)cc1F [Exe. 212] | 5.5 | 20.1 | 21.1 | 177 | – | – | – | – |
| N#Cc1ccc(NC(=O)Nc2ccc(Oc3ccnc(NC(=O)C4CC4)c3)cc2F)cc1Cl [Exe. 221] | 6.7 | 11 | – | – | 7.8 | 1270 | – | – |
| Cc1cc(NC(=O)Nc2ccc(Cl)c(C(C)(F)F)c2)ccc1Oc1ccnc(NC(=O)C2CC2)c1 [Exe. 235] | 13.4 | 22 | 12.2 | 1290 | – | – | – | – |
| CNC(=O)c1cc(Oc2ccc(NC(=O)Nc3ccc(Cl)c(C(F)(F)F)c3)cc2)ccn1 [sorafenib] | – | – | – | – | – | – | shorter half-life than many of the compounds in this invention | weaker than that of many of the compounds in the present invention |

Further lines, with some results ahead:

| IC50 (KDR kinase (790-1356 AA)) [nM] | IC50 (B-Raf kinase) [nM] | IC50 (pERK in MDA-MB-231 cells; [2]) [nM] | SMILES | IC50 (PLC-PRF-5 cells; [3]) [nM] | IC50 (pERK in MDA-MB-231 cells; MDA-MB-231, read-out: MDA-MB-231 pERK IC50) [nM] | IC50 (PLC-PRF-5 cells; PLC-PRF-5, read-out: PLC-PRF-5 cell proliferation IC50) [nM] | half-life [1] | in vivo anti-tumor activities (tumor) |
| --- | --- | --- | --- | --- | --- | --- | --- | --- |
| 13.2 | 19 | 14.5 | O=C(Nc1ccc(F)c(OC(F)(F)F)c1)Nc1ccc(Oc2ccnc(NC(=O)C3CC3)c2)cc1F [Exe. 215] | 618 | – | – | – | – |
| 10.6 | 10 | 11.8 | CC(F)(F)c1ccnc(NC(=O)Nc2ccc(Oc3ccnc(NC(=O)C4CC4)c3)cc2F)c1 [Exe. 216] | 536 | – | – | – | – |
| 9.9 | 8.9 | 2.3 | CC(F)(F)c1cccc(NC(=O)Nc2ccc(Oc3ccnc(NC(=O)C4CC4)c3)cc2F)c1 [Exe. 217] | 178 | – | – | – | – |
| 9.1 | 7.8 | 3.1 | CC(F)(F)c1ccc(F)c(NC(=O)Nc2ccc(Oc3ccnc(NC(=O)C4CC4)c3)cc2F)c1 [Exe. 218] | 21 | – | – | – | – |
| 11 | 8.3 | 8.8 | CC(F)(F)c1cc(NC(=O)Nc2ccc(Oc3ccnc(NC(=O)C4CC4)c3)cc2F)ccc1Cl [Exe. 219] | 632 | – | – | – | – |
| 14.9 | 7.1 | 4.6 | CC(F)(F)c1cc(NC(=O)Nc2ccc(Oc3ccnc(NC(=O)C4CC4)c3)cc2F)ccc1F [Exe. 220] | 240 | – | – | – | – |
| 9.5 | 29 | 22.4 | Cc1ccc(Oc2ccnc(NC(=O)C3CC3)c2)cc1NC(=O)Nc1cc(F)cc(C(F)(F)F)c1 [Exe. 224] | 4700 | – | – | – | – |
| 10.7 | 11 | 12 | Cc1ccc(Oc2ccnc(NC(=O)C3CC3)c2)cc1NC(=O)Nc1cc(C(F)(F)F)ccc1F [Exe. 225] | 5720 | – | – | – | – |
| 17.2 | 27 | 34.4 | Cc1ccc(Oc2ccnc(NC(=O)C3CC3)c2)cc1NC(=O)Nc1cc(C(C)(F)F)ccc1F [Exe. 227] | 17800 | – | – | – | – |
| 11.7 | 20.7 | 12 | Cc1cc(NC(=O)Nc2ccc(F)c(C(F)(F)F)c2)ccc1Oc1ccnc(NC(=O)C2CC2)c1 [Exe. 230] | 830 | – | – | – | – |
| 11.6 | 12.5 | 7.1 | Cc1cc(NC(=O)Nc2cccc(C(F)(F)F)c2)ccc1Oc1ccnc(NC(=O)C2CC2)c1 [Exe. 231] | 310 | – | – | – | – |
| 11 | 14 | 10.9 | Cc1cc(NC(=O)Nc2cccc(OC(F)(F)F)c2)ccc1Oc1ccnc(NC(=O)C2CC2)c1 [Exe. 232] | 418 | – | – | – | – |
| 9.9 | 16 | 6.8 | Cc1cc(NC(=O)Nc2cc(C(C)(F)F)ccc2F)ccc1Oc1ccnc(NC(=O)C2CC2)c1 [Exe. 234] | 63 | – | – | – | – |
| 13.9 | 3.7 | 730 | O=C(Nc1ccc(Oc2ccnc(NC(=O)C3CC3)c2)cc1)Nc1cc(OCC2CNC2)cc(C(F)(F)F)c1 [Exe. 237, N-[4-[4-[[3-(azetidin-3-ylmethoxy)-5-(trifluoromethyl)phenyl]carbamoylamino]phenoxy]-2-pyridyl]cyclopropanecarboxamide] | 14900 | – | – | – | – |
| 9.7 | 7 | 27.2 | Nc1cc(NC(=O)Nc2ccc(Oc3ccnc(NC(=O)C4CC4)c3)c(F)c2)cc(C(F)(F)F)c1 [Exe. 239] | 930 | – | – | – | – |
| 17.9 | 9.1 | 61.5 | CN1CC(Oc2cc(NC(=O)Nc3ccc(Oc4ccnc(NC(=O)C5CC5)c4)cc3)cc(C(F)(F)F)c2)C1 [Exe. 241, N-[4-[4-[[3-(1-methylazetidin-3-yl)oxy-5-(trifluoromethyl)phenyl]carbamoylamino]phenoxy]-2-pyridyl]cyclopropanecarboxamide] | 1770 | – | – | – | – |
